Source: patent US20230382869A1, “Phenyl-3,4-dihydroisoquinolin-2(1h)-yl-ethan-1-one derivatives as dopamine d1receptor positive allosteric modulators” (Eli Lilly and Company, priority 2020, published 2023)
Where two headings read alike, the source gives them in different places.

How the values were obtained:
CYP3A = experiment: Intrinsic clearance CLint,CYP3A,liver; type: in vitro ADME; conditions: human
[1] = Plasma and Brain Levels after oral dosing; type: in vivo, mouse; conditions: for Kp uu at 1 h: ratio Cu,brain vs Cu,plasma
Description: Example 7, 2-(2-chloro-6-fluoro-phenyl)-1-[(1S,3R)-6-fluoro-3-(hydroxymethyl)-5-(3-hydroxy-3-methyl-butyl)-1-methyl-3,4-dihydro-1H-isoquinolin-2-yl]ethenone, was orally dosed to male mouse from 3 mg/kg to 60 mg/kg in fed condition, and the plasma and brain concentration was determined 1 hr post-dose. The fraction unbound of the compound was determined in vitro as described previously (Zamek-Gliszczynski M J, et al., Validation of 96-well equilibrium dialysis with non-radiolabeled drug for definitive measurement of protein binding and application to clinical development of highly-bound drugs, J. Pharm. Sci. (2011) 100: 2498-2507). The ratio (Kpuu) of unbound brain concentration (Cu, brain) vs. unbound plasma concertation (Cu, plasma) was determined as described previously (Raub T J, et al., Brain Exposure of Two Selective Dual CDK4 and CDK6 Inhibitors and the Antitumor Activity of CDK4 and CDK6 Inhibition in Combination with Temozolomide in an Intracranial Glioblastoma Xenograft. Drug Metab. Dispos. (2015) 43:1360-71). The data presented below in Table 3 for Example 7 are averages from 3 animals at each dose. “Con.” refers to concentration.

## C[C@H]1c2ccc(F)c(CCC(C)(C)O)c2C[C@H](CO)N1C(=O)Cc1c(F)cccc1Cl [Example 7, 2-(2-chloro-6-fluoro-phenyl)-1-[(1S,3R)-6-fluoro-3-(hydroxymethyl)-5-(3-hydroxy-3-methyl-butyl)-1-methyl-3,4-dihydro-1H-isoquinolin-2-yl]ethanone]
CYP3A
  microsomal CLint: 25.5 µL/min/mg
[1]; brain, 3 mg/kg oral, 1 hr post-dose, male mouse, fed, read-out: Brain con.
  concentration at 1 h: 18 nM
[1]; brain, 6 mg/kg oral, 1 hr post-dose, male mouse, fed, read-out: Brain con.
  concentration at 1 h: 45.1 nM
[1]; brain, 10 mg/kg oral, 1 hr post-dose, male mouse, fed, read-out: Brain con.
  concentration at 1 h: 84.9 nM
[1]; brain, 30 mg/kg oral, 1 hr post-dose, male mouse, fed, read-out: Brain con.
  concentration at 1 h: 557 nM
[1]; brain, 60 mg/kg oral, 1 hr post-dose, male mouse, fed, read-out: Brain con.
  concentration at 1 h: 1290 nM
[1]; male, mouse, 3 mg/kg oral, 1 hr
  Kp uu at 1 h: 0.126
[1]; male, mouse, 6 mg/kg oral, 1 hr
  Kp uu at 1 h: 0.143
[1]; male, mouse, 10 mg/kg oral, 1 hr
  Kp uu at 1 h: 0.122
[1]; male, mouse, 30 mg/kg oral, 1 hr
  Kp uu at 1 h: 0.194
[1]; male, mouse, 60 mg/kg oral, 1 hr
  Kp uu at 1 h: 0.248
[1]; male, mouse, unbound brain concentration, 3 mg/kg oral, 1 hr, read-out: Cu, brain
  concentration at 1 h: 0.448 nM
[1]; male, mouse, unbound brain concentration, 6 mg/kg oral, 1 hr, read-out: Cu, brain
  concentration at 1 h: 1.12 nM
[1]; male, mouse, unbound brain concentration, 10 mg/kg oral, 1 hr, read-out: Cu, brain
  concentration at 1 h: 2.11 nM
[1]; male, mouse, unbound brain concentration, 30 mg/kg oral, 1 hr, read-out: Cu, brain
  concentration at 1 h: 13.9 nM
[1]; male, mouse, unbound brain concentration, 60 mg/kg oral, 1 hr, read-out: Cu, brain
  concentration at 1 h: 32.1 nM
[1]; male, mouse, unbound plasma concentration, 3 mg/kg oral, 1 hr, read-out: Cu, plasma
  concentration at 1 h: 4.97 nM
[1]; male, mouse, unbound plasma concentration, 6 mg/kg oral, 1 hr, read-out: Cu, plasma
  concentration at 1 h: 9.62 nM
[1]; male, mouse, unbound plasma concentration, 10 mg/kg oral, 1 hr, read-out: Cu, plasma
  concentration at 1 h: 17.1 nM
[1]; male, mouse, unbound plasma concentration, 30 mg/kg oral, 1 hr, read-out: Cu, plasma
  concentration at 1 h: 70.1 nM
[1]; male, mouse, unbound plasma concentration, 60 mg/kg oral, 1 hr, read-out: Cu, plasma
  concentration at 1 h: 128 nM
[1]; plasma, 3 mg/kg oral, 1 hr post-dose, male mouse, fed, read-out: Plasma con.
  concentration at 1 h: 353 nM
[1]; plasma, 6 mg/kg oral, 1 hr post-dose, male mouse, fed, read-out: Plasma con.
  concentration at 1 h: 682 nM
[1]; plasma, 10 mg/kg oral, 1 hr post-dose, male mouse, fed, read-out: Plasma con.
  concentration at 1 h: 1210 nM
[1]; plasma, 30 mg/kg oral, 1 hr post-dose, male mouse, fed, read-out: Plasma con.
  concentration at 1 h: 4980 nM
[1]; plasma, 60 mg/kg oral, 1 hr post-dose, male mouse, fed, read-out: Plasma con.
  concentration at 1 h: 9080 nM
